Reference: patent US10093683B2, “Factor XIa inhibitors” (Merck Sharp & Dohme Corp., priority 2014, dated 2018)
pKi: −log10 of the molar value. Where two headings read alike, the source gives them in different places.

Key:
human Factor XIa = human Factor XIa (Homo sapiens (Human), UniProt P03951); assay: Factor XIa Assay; format: biochemical; conditions: read-out: FXIa Ki
How it was run: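 Ki derived from the dependence of Vo/Vi on inhibitor concentration under a competitive-inhibition model, after pre-equilibration of enzyme and inhibitor. Reaction: 40 pM human FXIa, 100 μM Z-Gly-Pro-Arg-AFC, HEPES 50 mM pH 7.4 with NaCl, CaCl2 and PEG 8000; run at room temperature or 37° C.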

Human plasma kallikrein = Human plasma kallikrein (Homo sapiens (Human), UniProt P03952); assay: Kallikrein Assay; format: biochemical; conditions: purified Human plasma kallikrein 0.5 nM, Acetyl-K-P-R-AFC, pH 7.4; Ki from IC50 by Cheng Prusoff
Description: The effectiveness of a compound of the present invention as an inhibitor of Kallikrein can be determined using a relevant purified serine protease, and an appropriate synthetic substrate. The rate of hydrolysis of the chromogenic or fluorogenic substrate by the relevant serine protease was measured both in the absence and presence of compounds of the present invention. Assays were conducted at room temperature or at 37° C. […] A decrease in the rate of fluorescence change in the presence of inhibitor is indicative of enzyme inhibition. Such methods are known to one skilled in the art. The results of this assay are expressed as the inhibitory constant, Ki.
Kallikrein determinations were made in 50 mM HEPES buffer at pH 7.4 containing 150 mM NaCl, 5 mM CaCl2, and 0.1% PEG 8000 (polyethylene glycol; Fisher Scientific). Determinations were made using purified Human plasma kallikrein at a final concentration of 0.5 nM (Enzyme Research Laboratories) and the synthetic substrate, Acetyl-K-P-R-AFC (Sigma #C6608) at a concentration of […].
Times required to achieve equilibration between enzyme and inhibitor were determined in control experiments. The reactions were performed under linear progress curve conditions and fluorescence increase measured at 405 Ex/510 Em nm. […] IC50 was determined by inflection point from a four parameter logistic curve fit. Ki was calculated using the Cheng Prusoff equation, Ki=IC50/(1+([S]/Km)).

[1] = purified human Factor XIa 40 pM, Z-Gly-Pro-Arg-AFC 100 μM, pH 7.4

Human plasma kallikrein, sequence (P03952 391-638): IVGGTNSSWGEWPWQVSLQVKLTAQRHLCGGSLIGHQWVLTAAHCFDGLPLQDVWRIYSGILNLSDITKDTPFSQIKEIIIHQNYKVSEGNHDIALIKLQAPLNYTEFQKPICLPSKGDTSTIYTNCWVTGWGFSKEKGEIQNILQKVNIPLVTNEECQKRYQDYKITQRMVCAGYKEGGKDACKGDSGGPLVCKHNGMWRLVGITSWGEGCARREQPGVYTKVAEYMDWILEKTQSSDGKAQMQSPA
Human plasma kallikrein, sequence (P03952 20-390 partner): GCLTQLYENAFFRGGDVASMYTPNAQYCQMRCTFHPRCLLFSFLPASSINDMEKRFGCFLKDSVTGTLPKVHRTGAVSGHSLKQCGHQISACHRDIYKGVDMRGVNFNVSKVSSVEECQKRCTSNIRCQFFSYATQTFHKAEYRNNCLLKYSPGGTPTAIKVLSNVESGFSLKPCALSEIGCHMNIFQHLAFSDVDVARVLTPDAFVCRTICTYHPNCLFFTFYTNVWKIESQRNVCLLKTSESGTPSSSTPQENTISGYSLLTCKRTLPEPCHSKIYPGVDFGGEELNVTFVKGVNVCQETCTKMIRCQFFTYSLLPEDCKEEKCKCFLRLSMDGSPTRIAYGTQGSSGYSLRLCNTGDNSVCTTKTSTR
human Factor XIa, sequence (P03951 388-625): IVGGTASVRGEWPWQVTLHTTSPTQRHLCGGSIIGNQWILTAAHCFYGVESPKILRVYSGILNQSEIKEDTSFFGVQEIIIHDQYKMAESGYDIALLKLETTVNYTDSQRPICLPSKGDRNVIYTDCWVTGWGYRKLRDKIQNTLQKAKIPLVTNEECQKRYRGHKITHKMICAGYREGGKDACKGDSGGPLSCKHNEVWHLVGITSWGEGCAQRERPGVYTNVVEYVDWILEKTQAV
human Factor XIa, sequence (P03951 19-387 partner): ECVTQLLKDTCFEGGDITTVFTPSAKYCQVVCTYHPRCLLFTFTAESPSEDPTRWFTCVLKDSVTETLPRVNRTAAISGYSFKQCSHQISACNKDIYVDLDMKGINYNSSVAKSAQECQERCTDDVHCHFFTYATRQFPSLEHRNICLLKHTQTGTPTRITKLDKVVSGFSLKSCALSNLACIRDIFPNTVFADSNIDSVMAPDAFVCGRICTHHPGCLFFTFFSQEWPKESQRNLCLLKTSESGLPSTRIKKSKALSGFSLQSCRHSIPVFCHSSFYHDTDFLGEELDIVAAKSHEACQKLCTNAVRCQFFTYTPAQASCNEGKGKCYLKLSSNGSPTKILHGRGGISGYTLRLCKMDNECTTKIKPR

Row | Structure (SMILES) | pKi (human Factor XIa; [1]) | pKi (Human plasma kallikrein) | pKi (human Factor XIa)
1 | COCCOC(=O)Nc1ccc(C(=O)N[C@@H](Cc2ccccc2)C(=O)N2CCC3(C2)OC(=O)Nc2ccc(Cl)cc23)cc1 (stereo partly drawn) [Example 164, 2-methoxyethyl (4-(((2S)-1-(6-chloro-2-oxo-1,2-dihydrospiro[benzo[d][1,3]oxazine-4,3′-pyrrolidin]-1′-yl)-1-oxo-3-phenylpropan-2-yl)carbamoyl)phenyl)carbamate] | – | 7.44 | 8.03
2 | COC(=O)Nc1ccc(C(=O)N[C@@H](Cc2ccncc2)C(=O)N2CCC[C@@]3(C2)OC(=O)Nc2ccc(Cl)c(F)c23)cc1 [Example 62, methyl (4-(((S)-1-((R)-6-chloro-5-fluoro-2-oxo-1,2-dihydrospiro[benzo[d][1,3]oxazine-4,3′-piperidin]-1′-yl)-1-oxo-3-(pyridin-4-yl)propan-2-yl)carbamoyl)phenyl)carbamate] | 9.06 | 9.27 | –
3 | COC(=O)Nc1ccc(C(=O)N[C@@H](Cc2ccccc2)C(=O)N2CC[C@@]3(C2)OC(=O)Nc2ccc(Cl)cc23)cc1 [Example 6, methyl (4-(((S)-1-((R)-6-chloro-2-oxo-1,2-dihydrospiro[benzo[d][1,3]oxazine-4,3′-pyrrolidin]-1′-yl)-1-oxo-3-phenylpropan-2-yl)carbamoyl)phenyl)carbamate] | 8.33 | 8.40 | –
4 | COC(=O)Nc1ccc(C(=O)N[C@@H](Cc2ccccc2)C(=O)N2CCCC3(C2)OC(=O)Nc2ccc(Cl)c(F)c23)cc1 (stereo partly drawn) [Example 13, methyl (4-(((2S)-1-(6-chloro-5-fluoro-2-oxo-1,2-dihydrospiro[benzo[d][1,3]oxazine-4,3′-piperidin]-1′-yl)-1-oxo-3-phenylpropan-2-yl)carbamoyl)phenyl)carbamate] | 8.74 | 8.85 | –
5 | COC(=O)Nc1ccc(C(=O)N[C@@H](CC2CC2(F)F)C(=O)N2CCC[C@@]3(C2)OC(=O)Nc2ccc(Cl)c(F)c23)cc1 (single isomer, unassigned) [Example 67A] | 7.94 | 8.54 | –
6 | O=C1Nc2ccc(Cl)c(F)c2[C@@]2(CCCN(C(=O)[C@H](Cc3ccccc3)NC(=O)c3ccc(-c4ncc[nH]4)s3)C2)O1 [Example 235] | – | 9.06 | 8.90

Next, values leading:

Row | pKi (human Factor XIa; [1]) | pKi (Human plasma kallikrein) | pKi (human Factor XIa) | Structure (SMILES)
7 | 8.63 | 7.61 | – | COC(=O)Nc1ccc(C(=O)N[C@@H](Cc2ccc(-c3cn[nH]c3)cc2)C(=O)N2CC[C@@]3(C2)OC(=O)Nc2ccc(Cl)cc23)cc1 [Example 78, methyl (4-(((S)-3-(4-(1H-pyrazol-4-yl)phenyl)-1-((R)-6-chloro-2-oxo-1,2-dihydrospiro[benzo[d][1,3]oxazine-4,3′-pyrrolidin]-1′-yl)-1-oxopropan-2-yl)carbamoyl)phenyl)carbamate]
8 | 7.52 | 8.10 | – | COC(=O)Nc1ccc(C(=O)N[C@@H](Cc2ccc(-c3cc(C(F)(F)F)nn3C)cc2)C(=O)N2CC[C@@]3(C2)OC(=O)Nc2ccc(Cl)cc23)cc1 [Example 81, methyl (4-(((S)-1-((R)-6-chloro-2-oxo-1,2-dihydrospiro[benzo[d][1,3]oxazine-4,3′-pyrrolidin]-1′-yl)-3-(4-(1-methyl-3-(trifluoromethyl)-1H-pyrazol-5-yl)phenyl)-1-oxopropan-2-yl)carbamoyl)phenyl)carbamate]
9 | 8.26 | 8.55 | – | COC(=O)Nc1ccc(C(=O)N[C@@H](Cc2ccccc2)C(=O)N2CCC[C@@]3(C2)OC(=O)Nc2ccc(C)cc23)cc1 [Example 15, methyl (4-(((S)-1-((R)-6-methyl-2-oxo-1,2-dihydrospiro[benzo[d][1,3]oxazine-4,3′-piperidin]-1′-yl)-1-oxo-3-phenylpropan-2-yl)carbamoyl)phenyl)carbamate]
10 | – | 8.71 | 8.79 | Nc1ccc(C(=O)N[C@@H](Cc2ccc(F)cc2)C(=O)N2CCC[C@@]3(C2)OC(=O)Nc2ccc(Cl)cc23)cc1C(=O)O [Example 208, 2-amino-5-(((S)-1-((R)-6-chloro-2-oxo-1,2-dihydrospiro[benzo[d][1,3]oxazine-4,3′-piperidin]-1′-yl)-3-(4-fluorophenyl)-1-oxopropan-2-yl)carbamoyl)benzoic acid]
